Experiment [1] addresses Cyclin-dependent kinase 4/cyclin D2 (Homo sapiens, UniProt P11802+P30279). The experiment is described as follows: Inhibition of human recombinant CDK4/Cyclin D2 expressed in baculovirus infected insect Sf9 cells using G1 peptide as substrate after 45 mins by Top Count method in presence of [33P]-ATP.
The next experiment concerns the target Procathepsin L (Homo sapiens, UniProt P07711). The experiment can be described thus: Activation of human liver cathepsin L using Z-FR-AMC as substrate measured for 120 mins by fluorescence assay.
Another experiment deals with MAP kinase p38 (Homo sapiens, UniProt O15264+Q15759+Q16539+P53778). The experiment is described as follows: Inhibition of human P38 expressed in yeast using T669 as substrate preincubated for 30 mins followed by [gamma-32P]Mg/ATP addition measured after 25 mins by beta scintillation counting method.
Another experiment has as its target Collagenase 3 (Homo sapiens, UniProt P45452). The experiment is described as follows: Inhibition of human recombinant MMP13 (85 to 255 residues) expressed in Escherichia coli using 5-FAM/QXLTM as substrate by fluorometric assay.
In another experiment the target is Protease (Human immunodeficiency virus 1, UniProt Q9YQ12). The experiment is described as follows: Inhibition of HIV1 protease.
The target of experiment [2] is cGMP-inhibited 3',5'-cyclic phosphodiesterase 3B (Homo sapiens, UniProt Q13370). The experiment is described as follows: Inhibition of human recombinant PDE3B expressed in insect Sf9 cells assessed as residual cAMP level after 30 mins by HTRF assay. Background: Cyclic AMP is a second messenger, typically raised through Gs and lowered through Gi signalling.
Experiment [3] deals with Serine/threonine-protein kinase PLK1 (Homo sapiens, UniProt P53350). The experiment is described as follows: Inhibition of inactivated PLK1 in human HeLa cells using casein as substrate by immunoprecipitation assay. Format: cell-based.
For a further experiment, the target named is T1, Estrogen receptor (Homo sapiens, UniProt P03372).
T1 sequence (P03372 whole entry): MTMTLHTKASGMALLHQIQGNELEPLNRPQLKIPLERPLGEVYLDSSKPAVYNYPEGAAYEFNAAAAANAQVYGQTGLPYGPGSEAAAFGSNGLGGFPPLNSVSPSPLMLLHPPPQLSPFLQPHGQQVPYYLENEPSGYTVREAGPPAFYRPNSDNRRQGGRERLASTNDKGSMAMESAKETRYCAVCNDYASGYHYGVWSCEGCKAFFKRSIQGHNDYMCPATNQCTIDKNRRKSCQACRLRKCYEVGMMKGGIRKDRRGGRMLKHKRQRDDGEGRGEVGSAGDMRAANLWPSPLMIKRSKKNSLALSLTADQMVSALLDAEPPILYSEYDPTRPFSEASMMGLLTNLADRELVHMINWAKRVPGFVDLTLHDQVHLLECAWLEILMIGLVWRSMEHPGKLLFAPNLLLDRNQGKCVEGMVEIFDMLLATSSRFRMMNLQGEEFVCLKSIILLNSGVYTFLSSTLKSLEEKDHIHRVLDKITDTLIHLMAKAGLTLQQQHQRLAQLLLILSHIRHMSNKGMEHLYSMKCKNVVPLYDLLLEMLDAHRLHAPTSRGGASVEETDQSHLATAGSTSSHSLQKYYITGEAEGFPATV
The experiment can be described thus: Displacement of [3H]-17beta-estradiol from human recombinant ERalpha expressed in rabbit reticulocytes. The class given is cell-based.

In a further experiment the target is Estrogen receptor beta (Homo sapiens, UniProt Q92731). The experiment can be described thus: Displacement of [3H]-17beta-estradiol from human recombinant ERbeta expressed in rabbit reticulocytes. The class given is cell-based. In general terms: Loss of bound radioactivity is the signal in a displacement assay; it reports binding, not function.

A word on the IC50: it is the concentration at which inhibition is half-maximal. One may read the EC50 as the concentration at which the effect is half-maximal.

Sequence of cGMP-inhibited 3',5'-cyclic phosphodiesterase 3B (Q13370 whole entry): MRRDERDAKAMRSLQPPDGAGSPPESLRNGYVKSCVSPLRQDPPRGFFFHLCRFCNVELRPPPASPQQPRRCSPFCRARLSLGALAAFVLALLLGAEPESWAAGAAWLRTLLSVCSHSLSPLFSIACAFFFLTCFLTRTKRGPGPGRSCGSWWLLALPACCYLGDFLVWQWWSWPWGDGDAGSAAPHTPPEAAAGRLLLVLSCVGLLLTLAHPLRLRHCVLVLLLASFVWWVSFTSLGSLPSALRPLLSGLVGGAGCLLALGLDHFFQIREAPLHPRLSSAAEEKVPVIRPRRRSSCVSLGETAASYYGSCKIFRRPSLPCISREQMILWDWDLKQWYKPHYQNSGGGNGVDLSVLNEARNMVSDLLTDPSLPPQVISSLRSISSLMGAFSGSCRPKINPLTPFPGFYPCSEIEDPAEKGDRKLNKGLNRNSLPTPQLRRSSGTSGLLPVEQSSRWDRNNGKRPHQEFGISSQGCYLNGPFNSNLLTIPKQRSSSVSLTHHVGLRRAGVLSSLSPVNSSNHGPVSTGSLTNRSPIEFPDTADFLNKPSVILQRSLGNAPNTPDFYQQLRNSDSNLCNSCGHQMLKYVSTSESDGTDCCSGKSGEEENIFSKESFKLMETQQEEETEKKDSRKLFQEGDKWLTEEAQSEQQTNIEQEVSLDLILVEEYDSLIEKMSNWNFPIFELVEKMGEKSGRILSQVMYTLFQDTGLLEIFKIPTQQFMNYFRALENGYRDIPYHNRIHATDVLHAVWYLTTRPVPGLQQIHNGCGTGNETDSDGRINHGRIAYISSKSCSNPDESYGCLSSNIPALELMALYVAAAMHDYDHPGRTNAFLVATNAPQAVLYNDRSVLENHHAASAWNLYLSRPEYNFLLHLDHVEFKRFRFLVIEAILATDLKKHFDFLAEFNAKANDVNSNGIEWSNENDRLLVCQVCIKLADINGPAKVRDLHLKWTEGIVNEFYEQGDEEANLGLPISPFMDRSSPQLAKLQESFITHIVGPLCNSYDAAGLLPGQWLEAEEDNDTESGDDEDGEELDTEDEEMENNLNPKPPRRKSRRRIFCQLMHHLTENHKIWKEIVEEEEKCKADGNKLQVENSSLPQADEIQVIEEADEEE
Sequence of Serine/threonine-protein kinase PLK1 (P53350 whole entry): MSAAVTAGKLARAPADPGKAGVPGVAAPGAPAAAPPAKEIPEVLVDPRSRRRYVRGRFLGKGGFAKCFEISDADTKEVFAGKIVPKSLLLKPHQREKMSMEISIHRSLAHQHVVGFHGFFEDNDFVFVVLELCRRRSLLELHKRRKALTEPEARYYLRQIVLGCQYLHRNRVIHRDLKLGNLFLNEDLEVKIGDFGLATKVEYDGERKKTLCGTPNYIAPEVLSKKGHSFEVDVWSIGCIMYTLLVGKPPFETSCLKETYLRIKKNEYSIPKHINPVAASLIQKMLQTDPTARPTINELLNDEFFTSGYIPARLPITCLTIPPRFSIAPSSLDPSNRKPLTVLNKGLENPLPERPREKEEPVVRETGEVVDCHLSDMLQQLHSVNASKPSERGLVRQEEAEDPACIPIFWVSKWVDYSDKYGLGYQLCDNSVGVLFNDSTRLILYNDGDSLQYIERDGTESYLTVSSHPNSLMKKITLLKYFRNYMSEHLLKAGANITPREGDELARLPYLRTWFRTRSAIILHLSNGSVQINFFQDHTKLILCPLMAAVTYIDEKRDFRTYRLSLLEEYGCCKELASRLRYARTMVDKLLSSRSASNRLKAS
Sequence of Procathepsin L (P07711 whole entry): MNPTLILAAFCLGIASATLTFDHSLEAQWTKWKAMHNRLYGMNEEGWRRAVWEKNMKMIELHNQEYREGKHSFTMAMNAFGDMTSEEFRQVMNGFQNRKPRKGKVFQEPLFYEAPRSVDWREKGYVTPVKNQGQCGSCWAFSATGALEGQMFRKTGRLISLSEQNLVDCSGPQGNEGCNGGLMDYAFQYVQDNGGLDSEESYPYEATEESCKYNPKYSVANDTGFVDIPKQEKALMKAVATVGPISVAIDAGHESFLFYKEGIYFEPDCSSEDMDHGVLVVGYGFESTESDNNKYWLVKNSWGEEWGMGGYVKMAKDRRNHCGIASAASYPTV
Sequence of Protease (Q9YQ12 whole entry): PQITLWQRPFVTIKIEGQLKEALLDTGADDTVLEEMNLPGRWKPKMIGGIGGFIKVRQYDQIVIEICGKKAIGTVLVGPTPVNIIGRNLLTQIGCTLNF
Sequence of Cyclin-dependent kinase 4/cyclin D2 (P11802 whole entry): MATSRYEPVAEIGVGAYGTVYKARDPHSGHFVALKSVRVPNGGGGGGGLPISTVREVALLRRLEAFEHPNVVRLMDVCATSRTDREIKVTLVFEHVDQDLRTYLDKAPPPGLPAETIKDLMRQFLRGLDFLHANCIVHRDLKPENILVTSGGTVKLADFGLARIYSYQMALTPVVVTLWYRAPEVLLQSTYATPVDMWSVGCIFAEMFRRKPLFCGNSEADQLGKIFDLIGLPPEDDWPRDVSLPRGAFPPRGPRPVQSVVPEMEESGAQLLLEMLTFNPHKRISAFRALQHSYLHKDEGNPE
Sequence of Cyclin-dependent kinase 4/cyclin D2 (P30279 whole entry): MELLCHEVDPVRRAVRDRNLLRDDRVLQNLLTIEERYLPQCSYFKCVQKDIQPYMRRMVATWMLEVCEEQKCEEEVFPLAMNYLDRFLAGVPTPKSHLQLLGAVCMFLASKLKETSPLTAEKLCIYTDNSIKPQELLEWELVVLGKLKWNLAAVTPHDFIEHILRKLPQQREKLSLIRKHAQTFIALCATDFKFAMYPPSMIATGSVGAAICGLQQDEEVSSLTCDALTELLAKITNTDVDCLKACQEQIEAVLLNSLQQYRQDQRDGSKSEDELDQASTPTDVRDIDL
Sequence of Estrogen receptor beta (Q92731 whole entry): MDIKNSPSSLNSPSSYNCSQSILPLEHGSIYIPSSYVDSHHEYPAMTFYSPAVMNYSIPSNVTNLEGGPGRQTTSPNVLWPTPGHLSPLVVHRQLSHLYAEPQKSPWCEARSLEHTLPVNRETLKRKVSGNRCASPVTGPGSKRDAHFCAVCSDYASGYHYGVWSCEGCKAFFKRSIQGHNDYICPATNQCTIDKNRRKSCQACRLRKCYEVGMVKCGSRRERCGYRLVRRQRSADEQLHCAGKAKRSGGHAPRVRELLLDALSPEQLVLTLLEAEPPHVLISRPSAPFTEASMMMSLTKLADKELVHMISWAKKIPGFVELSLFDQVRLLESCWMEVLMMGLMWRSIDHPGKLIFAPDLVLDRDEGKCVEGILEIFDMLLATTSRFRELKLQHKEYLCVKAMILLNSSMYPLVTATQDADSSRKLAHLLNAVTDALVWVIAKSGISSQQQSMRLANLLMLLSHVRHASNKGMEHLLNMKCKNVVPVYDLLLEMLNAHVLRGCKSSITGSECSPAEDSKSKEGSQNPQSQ

Consider `O=C(Nc1ccccn1)Nc1cccc2c1-c1ccccc1C2=O`, for which the IC50 in experiment [1] came out at 100 nM.
Molecule `O=C(COc1ccccc1)N[C@@H](Cc1ccccc1)C(=O)O[C@H]1CCOC1` returned a 50% effective concentration (EC50) at Procathepsin L of 6000 nM.
For `Cc1ccc(-c2ncn(CC3CC3)c2-c2ccncc2)cc1`, on MAP kinase p38, the IC50 amounted to 160 nM.
Regarding `O=C(O)CCCOc1cccc(CNC(=O)C#Cc2cn(Cc3ccc(C(=O)O)cc3)c(=O)[nH]c2=O)c1`, the concentration for half-maximal inhibition (IC50) on Collagenase 3 was determined as 6 nM.
`CC(C)(C)NC(=O)[C@@H]1C[C@@H]2CCCC[C@@H]2CN1C[C@@H](O)[C@H](Cc1ccccc1)NC(=O)OC1CCCC1`: the midpoint of inhibition against Protease, the IC50, lay at 160 nM.
In the case of `O=C1CCC(c2ccc(NC(=O)Cc3cccnc3)cc2)=NN1`, the half-maximal effective concentration (EC50) in experiment [2] was determined as 6000 nM.
In experiment [3], `FC(F)(F)c1ccc(OC(CCNCc2ccccn2)c2ccccc2)cc1` (centres undefined) had a concentration for half-maximal inhibition (IC50) of 50 nM.
On to `CCc1ccc2c(c1)C(c1ccc(OCCN3CCOCC3)cc1)Cc1cc(O)cc(C)c1-2` (centres undefined), for which the IC50 worked out at 9 nM on Estrogen receptor and 190 nM at Estrogen receptor beta.

The values are drawn from ChEMBL document CHEMBL3813654, “De Novo Design at the Edge of Chaos” (J Med Chem, 2016).
